Structures are written as SMILES. Several values for one entry are separate records, joined by “and”; a condition that tells them apart may be missing. Identical values can stand only once.

In general, IC50 refers to the point on the concentration scale where inhibition reaches its midpoint.

Chain of Indoleamine 2,3-dioxygenase 1 (P14902 whole entry): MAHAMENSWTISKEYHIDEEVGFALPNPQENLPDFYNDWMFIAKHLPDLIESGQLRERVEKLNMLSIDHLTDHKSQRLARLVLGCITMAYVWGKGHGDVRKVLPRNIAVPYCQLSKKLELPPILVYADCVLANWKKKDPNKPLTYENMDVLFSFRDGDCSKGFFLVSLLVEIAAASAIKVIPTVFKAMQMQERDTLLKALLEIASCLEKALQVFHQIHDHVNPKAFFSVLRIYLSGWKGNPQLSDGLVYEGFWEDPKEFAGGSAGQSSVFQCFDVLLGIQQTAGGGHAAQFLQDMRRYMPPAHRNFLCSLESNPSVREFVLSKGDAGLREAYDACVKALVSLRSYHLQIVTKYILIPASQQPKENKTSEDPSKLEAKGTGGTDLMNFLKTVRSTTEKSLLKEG

This assay concerns the target Indoleamine 2,3-dioxygenase 1 (Homo sapiens, UniProt P14902). Briefly: Inhibitory Activity Assay: 1. […] Reagent Preparation100 mM PBS:100 mM disodium hydrogen phosphate and 100 mM potassium dihydrogen phosphate mixed in a ratio of 3:5, pH 6.5IDO1 assay buffer:100 mM PBS containing 400 μM L-tryptophan, 20 mM ascorbate, 20 μM methylene blue and 1000 U/ml catalase, pH 6.530% trichloroacetic acidddH2 O solution of 30% trichloroacetic acidEhrlich reagent1% (w/v) diluted solution of 4-(dimethylamino) benzaldehyde compoundAll compounds were dissolved with DMSO. During the assay, each compound was diluted to a concentration as needed. The compound of each concentration was added to multi-wells, and the final concentration of DMSO was controlled at 1%.3. Test Methoda.) the reaction mixture was prepared by adding 50 nM IDO1 and the desired concentration of the test compound to 100 μL of IDO1 assay buffer. IDO1 and assay buffer need to be preheated to 37° C.b.) The mixture was reacted in a constant temperature water tank at 37° C. for 30 minutes.c.) 50 μL of 30% trichloroacetic acid was added.d.) The above mixture was reacted in a constant temperature water tank at 52° C. for 30 minutes.e.) The reaction mixture was centrifuged at 12000 g for 10 minutes at room temperature.f.) 100 μL of the obtained supernatant and 100 μL of Ehrlich reagent were mixed.g.) the absorbance at 480 nm was measured using an M5 microplate reader.4. Data AnalysisInhibition rate=(ODpostive−ODsample)/(ODpositive−ODnegative)*100%5. Results and Discussion.
As to `O/N=C(\Nc1ccc(F)c(Cl)c1)c1nonc1NS`, the 50% inhibitory concentration (IC50) is 104 nM.
For `O=C(Nc1ccccc1)ONc1nonc1/C(=N/O)Nc1ccc(F)c(Br)c1` the value was 48 nM.
For `O/N=C(\Nc1ccc(F)c(Br)c1)c1nonc1NOCCOc1ccccc1` the value was 120 nM.
For `CC(=O)ONc1nonc1/C(=N/O)Nc1ccc(F)c(Br)c1` the value was 92 nM; for `O=C(NCCOCCONc1nonc1/C(=N/O)Nc1ccc(F)c(Br)c1)Nc1cc(F)cc(F)c1`, 72 nM.
Consider `O=C(NCCONc1nonc1/C(=N/O)Nc1ccc(F)c(Br)c1)Nc1cc(F)cc(F)c1`, for which the IC50 was 12 nM.
In the case of `NS(=O)(=O)NCC1(CONc2nonc2/C(=N/O)Nc2ccc(F)c(Br)c2)CC1`, the IC50 stood at 82 nM.
For `O/N=C(\Nc1ccc(F)c(Br)c1)c1nonc1NOCCN1CCOCC1` the value was 43 nM and 38 nM; for `O=C1CCC(=O)N1CCONc1nonc1/C(=N/O)Nc1ccc(F)c(Br)c1`, 96 nM; for `CSNc1nonc1/C(=N/O)Nc1ccc(F)c(Cl)c1`, 53 nM.
For `NC1CCC(ONc2nonc2/C(=N/O)Nc2ccc(F)c(Br)c2)CC1` (stereo not drawn) the value was 184 nM.
For `O=C(ONc1nonc1/C(=N/O)Nc1ccc(F)c(Br)c1)c1ccccc1` the value was 65 nM; for `O/N=C(\Nc1ccc(F)c(Br)c1)c1nonc1NOCCN1CCCC1`, 108 nM; for `O=C1C=CC(=O)N1CCONc1nonc1/C(=N/O)Nc1ccc(F)c(Cl)c1`, 32 nM and 58 nM.
As to `NS(=O)(=O)N1CCC(ONc2nonc2/C(=N/O)Nc2ccc(F)c(Br)c2)CC1`, the IC50 was 65 nM.
On to `O=C(NCCONc1nonc1/C(=N/O)Nc1ccc(F)c(Br)c1)NC1CCCC1`, for which the IC50 is 69 nM.
For `NCCONc1nonc1/C(=N/O)Nc1ccc(F)c(Br)c1` the value was 35 nM and 43 nM; for `CC(=O)NCCONc1nonc1/C(=N/O)Nc1ccc(F)c(Br)c1`, 162 nM.
Turning to `CC(C)OC(=O)NCCONc1nonc1/C(=N/O)Nc1ccc(F)c(Br)c1`, the IC50 is 36 nM and 28 nM.
Consider `O/N=C(\Nc1ccc(F)c(Br)c1)c1nonc1NO`, for which the IC50 was 125 nM.
For `CCCCONc1nonc1/C(=N/O)Nc1ccc(F)c(Br)c1` the value was 80 nM.
For `NC(=O)C(N)CCONc1nonc1/C(=N/O)Nc1ccc(F)c(Br)c1` (stereo not drawn) the value was 85 nM; for `O/N=C(\Nc1ccc(F)c(Br)c1)c1nonc1NOC1CCCNC1` (stereo not drawn), 80 nM.

For the origin of these results see ChEMBL document CHEMBL5728913, “Indoleamine 2,3-dioxygenase inhibitor, method for preparation and use thereof” (2022).
